Experimental data published in ChEMBL document CHEMBL1139525, “Targeting and inhibition of cell growth by an engineered dendritic nanodevice” (J Med Chem, 2005).

Columns and labels:
[1] = Dissociation constant against folic acid receptor (FAR); Value ranges from 0.1-1 nM; parameters: species or system Homo sapiens
KB = assay: Concentration required to completely block the uptake of either G5-FI-FA or G5-FI-FA-MTX dendrimer (30 nM) in FAR expressing KB cells; type: functional, cell-based; conditions: Homo sapiens

Structure (SMILES): Nc1nc(=O)c2nc(CNc3ccc(C(=O)N[C@@H](CCC(=O)O)C(=O)O)cc3)cnc2[nH]1 [FOLIC ACID]
- Kd [1]: 1 nM
- Concentration (KB): 50 µM
